# Measured values: patent US20070118920A1, “Herbicide-resistant sunflower plants, polynucleotides encoding herbicide-resistant acetohydroxyacid synthase large subunit proteins, and methods of use” (priority 2005, published 2007)
# How the values were obtained:
# [1] = system: RHA266 (wild-type) sunflower plants; assay: Field trial, tolerance to sulfonylurea herbicides (% injury); assay type: in vivo, Helianthus annuus; settings: six-leaf stage
# Excerpt: (§1) To evaluate the resistance of MUT9 sunflower plants to sulfonylurea herbicides, RHA266 (wild-type) and MUT9 sunflower plants were planted outdoors in Balcarce, Argentina during the growing season in an RCBD field trial with two replications to evaluate the tolerance of homozygous M5 MUT9 plants to the sulfonylurea herbicides tribenuron methyl (TBM) and thifensulfuron (TFS) at 1× and 2× rates applied at the six-leaf stage. Due to the lack of MUT9 seed, one herbicide was sprayed in each replication. The 1× rates for TBM and TFS are 13.15 g a.i./ha and 4.4 g a.i./ha, respectively.
# [2] = system: homozygous M5 MUT9 sunflower plants; assay: as above; assay type: in vivo, Helianthus annuus; settings: six-leaf stage
# Excerpt: as §1
# [3] = rate 2X (1X: TBM 13.15 g a.i./ha, TFS 4.4 g a.i./ha)
# [4] = rate 1X (TBM 13.15 g a.i./ha, TFS 4.4 g a.i./ha)
Compound,"% Injury [1, 3] [%]","% Injury [2, 4] [%]","% Injury [2, 3] [%]","% Injury [1, 4] [%]"
"COC(=O)c1ccccc1S(=O)(=O)NC(=O)N(C)c1nc(C)nc(OC)n1 [TBM, tribenuron methyl]",45,75,75,
"COc1nc(C)nc(NC(=O)NS(=O)(=O)c2ccsc2C(=O)O)n1 [TFS, thifensulfuron]",75,75,75,75
